Source: patent publication US20120321584A1, “PROCESSES FOR PREPARING AMINE SALTS OF KMUP-3 AND USE THEREOF” (KAOHSIUNG MEDICAL UNIVERSITY, priority 2011, published 2012)

Columns and labels:
[1] = system: isolated spontaneously beating right atrium; assay: Spontaneously beating right atrium, organ bath; format: cell-based, guinea-pig; settings: for Effect of pretreatment on the beating frequency decreased by KMUP-3: atropine 1 μM, 7-nitroindazole 100 μM
Procedure: (§1) Organ bath experiments and tissue procurement. Guinea-pigs were killed by a blow on the head. Their hearts were quickly excised and trimmed of excess tissues. The atrium was carefully removed and placed at room temperature (20˜25° C.) in a Krebs solution of the following composition (mM): NaCl 113, KCl 4.8, CaCl2 2.2, KH2PO4 1.2, MgCl2 1.2, NaHCO3 25, dextrose 11.0; bubbled with a 95% O2+5% CO2 mixture, followed by separation of right and left atrium for subsequent experiments.
Spontaneously beating right atrium was dissected from the heart and mounted in a 10 ml organ bath with one end fixed and the other end connected to a force displacement transducer (Grass, Model FT03). The frequency of contraction was measured on a separate channel by a tachometer (Coulbourn, Model S77-26) connected to a high-speed videograph (Coulbourn, AT L19-69). These experiments were carried out at 32.5° C. in Krebs solution. The atria strip was pre-stretched to a baseline tension of 0.5 g and equilibrated for 90 min in aerated (95% O2+5% CO2) Krebs solution before the experimental protocols were initiated. The atria were then allowed a 30-60 min washout period to re-stabilize. KMUP-3 or KMUP-3 amine salt (0.1, 1.0, 10, 100 μM) were then cumulatively added to the organ bath. […]

[2] = system: electrically-stimulated left atria; assay: Electrically-stimulated beating left atrium, organ bath; format: cell-based, guinea-pig; settings: for Effect of pretreatment on KMUP-3-induced positive inotropic activity: propranolol and Y27632 1 μM, C3 exoenzyme 50 μg/mL, ketanserin 1.0 μM, L-NAME 100 μM; for Effect of pretreatment on KMUP-3-induced contractility: sGC inhibitor ODQ, eNOS inhibitor L-NAME
Procedure: as §1
Quiescent left atria free of connective tissues were dissected and mounted in an organ bath under a resting tension of 0.5 g. Organs were bathed at 32.5° C. in aerated Krebs solution and electrically stimulated with 1 Hz at […] via two platinum electrodes placed at either side. The positive inotropic effect was measured by determining the cumulative concentration-response curves in the presence of KMUP-3 or KMUP-3 amine salt (0.1, 1.0, 10, 100 μM). To examine the possible involvement of NO and cAMP/cGMP in the action of KMUP-3 or KMUP-3 amine salt on electrically-stimulated beating atria, pre-incubated with a ROCK inhibitor Y27632 (1.0 μM), a β-adrenoceptor blocker propranolol (1.0 μM), eNOS inhibitors L-NAME (100 μM), 7-nitroindazole (100 μM) and 5-HT inhibitor ketanserin (1.0 μM) was performed for 15 min prior to the addition of KMUP-3 or KMUP-3 amine salt to measure the development of beating force and heart rate for 10 min.

[3] = system: PKCα; assay: PKCα translocation of beating left atrium; format: cell-based, guinea-pig; settings: Y27632 1-10 μM
Procedure: To determine the effect of KMUP-3 or KMUP-3 amine salt on PKCa translocation, isolated left beating atrium was incubated with KMUP-3 or KMUP-3 amine salt for 30 minutes (0.1-10 μM). In brief, frozen left atrium was pulverized to a fine powder at the temperature of liquid nitrogen for preparation of cytosolic and membrane fractions. Isolated left atrium tissues were then homogenized by a sonicator (XL-2020, Heat Systems Ultrasonic, Plainview, N.Y., USA) at 4 in 1 ml of homogenization buffer containing 20 mM Tris-HCl (pH 7.5), 1 mM dithiothreitol (DTT), 5 mM EGTA, 2 mM EDTA, 0.5 mM PMSF, 20 μM leupeptin and 20 μM aprotinin. The cytosol fractions were obtained by collecting the supernatants after centrifuging the cells at 100,000×g for 45 minutes at 4. The pellets were resonicated in the homogenizing buffer with 1% Triton X-100, centrifuged again at 100,000×g for 45 minutes at 4, and the supernatants collected as membrane fractions. The extracts for cytosol and membrane fractions were denatured by heating at for 10 minutes in sampling buffer, and an aliquot containing 20 μg of total protein was subjected to a 10% SDS-polyacrylamide gel electrophoresis. […] Protein was detected with horseradish peroxidase (HRP) conjugated secondary antibody (BD Transduction Laboratories). […] The immunoreactive bands were detected by chemiluminescence (ECL) reagents (PerkinElmer Life Sciences, Inc).

[4] = system: L-type Ca2+ channels; assay: Ca2+ entry currents in H9c2 cells, whole cell patch-clamp; format: cell-based, rat; settings: KMUP-3 10 μM with KT5823 3 μM or Y27642 50 μM
Excerpt: To measure the ICa through L-type Ca^2+ channels, whole cell patch-clamp electrophysiology was used in rat heart-derived H9c2 cells as previously described. In brief, H9c2 cells were placed in a recording dish and perfused with a bath solution containing (in mM): 135 tetraethylammonium (TEA)-Cl, 1.8 CaCl2, 2 MgCl2, 10 glucose, and 10 HEPES (pH 7.4, Tris). […] Negative pressure was briefly applied to rupture the membrane and a gigaohm seal was obtained.
H9c2 cells were clamped at −80 mV with step depolarizations (300 ms) from −80 to 0 mV to evoke whole-cell ICa. Voltage clamped cells were equilibrated for 15 min prior to experimentation. Membrane currents were recorded on an Axopatch 700A amplifier (Axon Instruments, Union City, Calif.), filtered at 1 kHz using a low-pass Bessel filter, digitized at 5 kHz and stored on a computer for subsequent analysis with Clampfit 9.0. Following equilibration, ICa was monitored in the presence and absence of KMUP-3 or KMUP-3 amine salt (1, 10, 100 μM). To ascertain whether PKG or ROCK signaling was involved in the KMUP-3-induced decreases in ICa, H9c2 cells were incubated for 15 min with the combination of KMUP-3 or KMUP-3 amine salt (10 μM) and PKG antagonist KT5823 (3 μM) or ROCK inhibitor Y-27632 (50 μM). All electrical recordings were performed at room temperature.

[5] = system: PKA; assay: PKA expression in electrically-stimulated left atria, Western blotting; format: cell-based, guinea-pig; settings: Y27632 1-100 μM
Procedure: (§2) Protein extraction and Western blotting analysis. Briefly, after incubation with test agents in an organ bath, isolated beating atrium was frozen and pulverized to a fine powder at the temperature of liquid nitrogen. Atrium powders were then homogenized in protein extraction reagent (Pierce Biotechnology, Inc., Rockford, Ill.) by sonication. The samples were sonicated 10 sec three times and centrifuged at 13,000 rpm at 4° C. for 30 min. The protein concentrations of supernatants were determined by using bovine serum albumin as the standard. The cell extracts were then boiled in a ratio of 4:1 with sample buffer (Tris 100 mM, pH 6.8; glycerol 20%, Sodium dodecyl sulfate (SDS) 4% and bromophenol blue 0.2%). Electrophoresis was performed using 10% SDS-PAGE and transferred to nitrocellulose membranes (Millipore Corp., Billerica, Mass.). The membrane was blocked with Tris-buffered saline (TBS; 20 mM Tris and 137 mM NaCl, pH 7.6) containing 0.1% Tween 20 (TTBS) and 5% nonfat milk at room temperature for 1 h, washed with TTBS, and then incubated overnight at 4° C. in the appropriate primary antibody for PKARI, RhoA, ROCKII, p-CIP-17, CPI-17 and PKG1α1β. The membranes were washed in TTBS before being incubated with horseradish peroxidase-conjugated antibody against mouse, goat, or rabbit IgG for 1 hr. Membranes were then washed in TTBS and developed with the enhanced chemiluminescence for the detection of the specific antigen. The intensity of the bands was measured by densitometry. eNOS or phosphorylated eNOS were extracted from cell culture of neonatal myocytes, PA ring and aortic ring (2-3 mm) of rats and measured by Western blotting analysis.
(§3) PK, ROCKII and CIP-17 expression and pretreatment of beating left atrium. To examine whether KMUP-3 or KMUP-3 amine salt affects the protein expression in beating atrium, PKA, ROCKII, PKG and phosphorylated CIP-17 was determined by Western blotting, respectively. […]

[6] = system: ROCKII; assay: ROCKII expression in electrically-stimulated left atria, Western blotting; format: cell-based, guinea-pig; settings: Y27632 1-100 μM
Procedure: as §2, §3

[7] = Hemodynamic measurements in anesthetized rats (LVSP, dP/dt, MABP, HR); format: in vivo, Wistar rats; settings: intravenous pretreatment at 1 mg/kg; KMUP-3 1 mg/kg, i.v.
Procedure: Hemodynamic measurements were carried out in male Wistar rats weighting 300˜350 g, anesthetized with pentobarbital sodium (40 mg kg^−1, i.p.). In brief, polyethylene tubing (PE50) was placed in the trachea to keep the airway patent, and rats continued to breathe spontaneously. Subsequently, rats were used to record hemodynamic and cardiovascular function. Vascular catheters (PE50) were placed in the femoral arteries to measure mean arterial blood pressure (MABP) and heart rate (HR). Changes of MABP and HR caused by KMUP-3 or KMUP-3 amine salt were recorded from the femoral artery with a pressure transducer (Gould, Model P50, U.S.A.), connected with a Pressure Processor Amplifier (Gould, Model 13-4615-52, U.S.A.). A femoral vein was used for intravenous administration of KMUP-3 or KMUP-3 amine salt. A specialized transducer tip catheter was placed in the right carotid artery and advanced into the left ventricle of the heart for measurement of left ventricular pressure (LVSP) or contractility; dP/dt at 50 mm Hg, an index of cardiac contractility, was derived from the left ventricular pressure trace; post-hoc vascular resistance was calculated as mean arterial blood pressure/peripheral cardiac output (MABP/PCO). Body temperature was monitored throughout the experiment and maintained between 37 and 37.5° C. by using a heating pad.
Each dose of active drugs was administered as a 20-min infusion in a series of escalating doses dissolved in a 5% dextrose water vehicle. […] KMUP-3 HCl or KMUP-3 amine salt were infused at 0.03, 0.05, and 0.075 μg/kg/20 min for the measurement of FABP, intraperitoneally injected at 0.03, 0.05 and 0.1 mg/kg for the measurement of MABP and HR and infused by intravenous injection for 2 min at 0.5, 1.0, 3.0 mg/kg dissolved in 5% dextrose water vehicle (2 ml) for the measurement of LV systolic pressure (LVSH), ABP, dP/dt, and HR. The primary hemodynamic variables were computed using commercial software and a signal processing workstation. Animals were randomly divided into one of six treatment or vehicle groups. After the completion of the surgical protocol, animals were allowed to stabilize for 1 h, and baseline data were collected at 5-min intervals for 30 min before the treatment.

[8] = system: eNOS; assay: eNOS expression in neonatal myocytes, Western blotting; format: cell-based, rat; settings: L-NAME 100 μM pretreatment
Procedure: (§4) eNOS/p-NOS and cAMP/cGMP in neonatal myocytes. To determine the role of the NO/cGMP-pathway in heart, neonatal rat myocyte protein was extracted followed by Western blotting to measure the expression of eNOS, phosphorylated eNOS (p-eNOS), cAMP, and cGMP (FIG. 14 A-14 B and FIG. 15 A-15 B). KMUP-3 increased eNOS and p-eNOS in neonatal rat cardiomyocytes and the effect was reduced by L-NAME (100 μM)-pretreatment (FIG. 14A and FIG. 14B). KMUP-3 increased both cAMP and cGMP.
(§5) Protein extraction and Western blotting analysis. Briefly, after incubation with test agents in an organ bath, isolated beating atrium was frozen and pulverized to a fine powder at the temperature of liquid nitrogen. Atrium powders were then homogenized in protein extraction reagent (Pierce Biotechnology, Inc., Rockford, Ill.) by sonication. The samples were sonicated 10 sec three times and centrifuged at 13,000 rpm at 4° C. for 30 min. The protein concentrations of supernatants were determined by using bovine serum albumin as the standard. […] The intensity of the bands was measured by densitometry. eNOS or phosphorylated eNOS were extracted from cell culture of neonatal myocytes, PA ring and aortic ring (2-3 mm) of rats and measured by Western blotting analysis.

[9] = system: PKG; assay: PKG expression in beating left atrium, Western blotting; format: cell-based, guinea-pig; settings: L-NAME pretreatment
Procedure: as §5, with “standard. The cell extracts were then boiled in a ratio of 4:1 with sample buffer (Tris 100 mM, pH 6.8; glycerol 20%, Sodium dodecyl sulfate (SDS) 4% and bromophenol blue 0.2%). Electrophoresis was performed using 10% SDS-PAGE and transferred to nitrocellulose membranes (Millipore Corp., Billerica, Mass.).” for “standard.”
as §3

[10] = system: phosphorylated eNOS (p-eNOS); assay: Phosphorylated eNOS expression in neonatal myocytes, Western blotting; format: cell-based, rat; settings: L-NAME 100 μM pretreatment
Procedure: as §4, §5

[11] = system: electrically-stimulated left atria; assay: Electrically-stimulated beating left atrium, organ bath; format: cell-based, guinea-pig; settings: 0.1~30 μM, electrical stimulation 1 Hz

O=[N+]([O-])c1cccc2cn[nH]c12 [7-nitroindazole]
Effect of pretreatment on the beating frequency decreased by KMUP-3 [1]: up-regulated | Effect of combination on left atria contractility increased by KMUP-3 ([2]; KMUP-3 10 μM with 7-nitroindazole 100 μM): reduced

C[C@@H](N)[C@H]1CC[C@H](C(=O)Nc2ccncc2)CC1 [Y27632, reference compound]
Effect of pretreatment on KMUP-3-induced translocation of PKCα [3]: insignificantly prevented | Effect of combination on currents reduced by KMUP-3 [4]: restored | Effect on KMUP-3-induced expression of PKA [5]: inhibited | Effect on KMUP-3-induced expression of ROCK II [6]: inhibited | Effect of pretreatment on KMUP-3-induced positive inotropic activity [2]: reduced | Effect of pretreatment on the effects (LVSP, dP/dt, MABP) induced by KMUP-3 [7]: inhibited

COC(=O)[C@@]1(OC)C[C@H]2O[C@]1(C)n1c3ccccc3c3c4c(c5c6ccccc6n2c5c31)C(=O)N(C)C4 [KT5823]
Effect of combination on currents reduced by KMUP-3 [4]: restored

C3 exoenzyme: C3 exoenzyme, used at 50 μg/mL as pretreatment
Effect of pretreatment on KMUP-3-induced positive inotropic activity [2]: reduced

COC(=O)[C@@H](N)CCCNC(=N)N[N+](=O)[O-] [L-NAME]
Effect of pretreatment on KMUP-3-increased eNOS [8]: reduced | Effect of pretreatment on expression of PKG [9]: reduced | Effect of pretreatment on KMUP-3-induced positive inotropic activity [2]: reduced | Effect of pretreatment on KMUP-3-induced contractility [2]: inhibited | Effect of pretreatment on KMUP-3-increased p-eNOS [10]: reduced

O=C(c1ccc(F)cc1)C1CCN(CCn2c(=O)[nH]c3ccccc3c2=O)CC1 [ketanserin, reference compound]
Effect of pretreatment on KMUP-3-induced positive inotropic activity [2]: reduced | Effect of pretreatment on the effects (LVSP, dP/dt, MABP) induced by KMUP-3 [7]: inhibited

CC(C)NCC(O)COc1cccc2ccccc12 (stereo not drawn) [propranolol, reference compound]
Effect of pretreatment on KMUP-3-induced positive inotropic activity [2]: reduced | Effect of pretreatment on the effects (LVSP, dP/dt, MABP) induced by KMUP-3 [7]: inhibited

O=c1onc2cnc3ccccc3n12 [ODQ]
Effect of pretreatment on KMUP-3-induced contractility [2]: inhibited

Cc1[nH]c(=O)c(C#N)cc1-c1ccncc1 [milrinone]
Chronotropic effect (beating frequency) ([1]; 0.1-30 μM): increased | Inotropic effect (contraction force) ([1]; 0.1-30 μM): increased | Left atrium contractility [11]: concentration-dependently increased

CN1[C@@H]2CC[C@H]1C[C@@H](OC(=O)C(CO)c1ccccc1)C2 (stereo partly drawn) [atropine]
Effect of pretreatment on the beating frequency decreased by KMUP-3 [1]: up-regulated
